Measured values taken from US6296873A, “Zero-order sustained release delivery system for carbamazephine derivatives” (Yissum Research Development Company of the Hebrew …, priority 2000, dated 2001).
≈ marks a conversion by molar mass, not a printed value. Where two headings read alike, the source gives them in different places.

Experiments:
[1] = Degree of conversion of anhydrous carbamazepine to carbamazepine dihydrate in suspension (DSC); format: physicochemical
Description: Suspensions of carbamazepine (5% w/v) containing water or 1% SDS aqueous solution were shaken at 37° C. with stirring (50 rpm). Samples from the sediment were taken after 1 day, dried at room temperature for 2 days, and analyzed by differential scanning calorimetry, X-ray powder diffraction and scanning electron microscopy (SEM). Carbamazepine anhydrous powder was analyzed using the same methods.
(§1) Analysis of carbamazepine in HPMC solutions and in dry mixtures of HPMC was performed. Suspension of carbamazepine (5% w/v) containing 1% SDS aqueous solution with Methocel K4M at different concentrations, namely 0.5, 1, 2, 5 and 10 mg,/ml were shaken for 1-7 days at 37° C. with stirring (50 rpm). Samples from the sediment were taken, at various time intervals, dried at room temperature for 2 days and analyzed by DSC, X-ray powder diffraction and SEM.
The degree of conversion of anhydrous carbamazepine to the dihydrate form, measured by DSC, was calculated according to the ratio obtained from the dehydration enthalpies of carbamazepine suspended in 1% SDS aqueous Methocel solution and 1% SDS aqueous solution without Methocel. Dry mixtures containing different ratios of HPMC (Methocel K4M) and carbamazepine were also analyzed by DSC in order to investigate the influence of HPMC on the polymorphic transformation of carbamazepine.
(§2) The thermal analysis of the samples was performed using a Differential Scanning Calorimeter (DSC, Mettler TA4000 with measuring cell DSC 30E, Switzerland). Samples were measured into aluminum pans. Lids were crimped and holes were made in lids in order to allow dehydration of samples. The thermal behavior of the samples was studied under nitrogen purge at heating rates of 10° C. min^-1 over a temperature range of 0° C. to 250° C. When the glass transition temperature of HPMC was examined the heating rate was 0.5° C. min^-1.

[2] = Crystal morphology and structure of carbamazepine in the gel layer of hydrated tablets (DSC, X-ray, SEM); format: physicochemical; conditions: for SEM: form of carbamazepine in the gel layer: 50% Methocel K4M
Description: Gel layers of the tablets were analyzed. Tablets were hydrated using the USP Basket Method I under the same conditions described in the dissolution studies. At various time intervals the tablets were removed from the baskets, the gel layer was scratched and dried at room temperature for at least 24 hours. The gel layer was analyzed by DSC, X-ray powder diffraction and scanning electron microscopy (SEM). Used analytical methods are described in Example 4.
Tablets containing 50% carbamazepine and 50% Methocel K4M were prepared and hydrated in medium containing 1% SDS in water, using tablet dissolution tester at the same conditions used for measurements of the release rate of the drug.
At various time intervals the tablets were removed and the gel layer was peeled, dried at room temperature and analyzed by DSC, X-ray and SEM. For comparison, a suspension containing carbamazepine in 1% SDS water solution was prepared and the crystals obtained were analyzed by DSC, X-ray and SEM.
as §2
(§3) X-ray powder diffraction of the samples was recorded by Philips automated diffractometer using Cu-K α radiation (40 kV, 35 mA) at a scanning rate of 0.5° per 20 min^-1.
Samples of hydrated tablets were sliced across the gel layer. The samples were washed and then treated with increasing concentration of ethanol, 5 minutes at each concentration, for dehydration. […] Scanning electron photomicrographs were recorded using a Philips 505 SEM, applying voltage of […]. Samples of powders were coated and analyzed under the same conditions described for the hydrated tablets.

[3] = anhydrous carbamazepine; cited from earlier work
[4] = Solubility of carbamazepine in medium; format: physicochemical; conditions: read-out: Drug solubility
From the text: Results are seen in FIG. 12.

[5] = after 1 hour, in the presence of water; cited from earlier work
[6] = Crystal morphology and structure of carbamazepine from HPMC solutions (SEM, X-ray diffraction); format: physicochemical; conditions: for X-ray diffraction: crystal form of carbamazepine: 1 day
Description: as §1, §3
Samples of hydrated tablets were sliced across the gel layer. The samples were washed and then treated with increasing concentration of ethanol, 5 minutes at each concentration, for dehydration. In order to complete the dehydration the samples were transferred in solution of freon 113:ethanol with increasing concentrations of freon (25, 50, 75, 100%). The samples with 100% freon were incubated in the hood for 0.5 hour. The cross-sectioned tablets were mounted on stubs and coated with a polaron sputter coater, Model E5100. The film thickness obtained was approximately 75 Å. Scanning electron photomicrographs were recorded using a Philips 505 SEM, applying voltage of […]. Samples of powders were coated and analyzed under the same conditions described for the hydrated tablets.

With `NC(=O)N1c2ccccc2C=Cc2ccccc21` [carbamazepine] the “Degree of conversion of carbamazepine to carbamazepine dihydrate” value (“Degree of conversion of carbamazepine” below) ([1]; 5 mg/ml Methocel K4M, time 1 day) was 0%, the “Degree of conversion of carbamazepine” value ([1]; 5 mg/ml Methocel K4M, time 2 days) was 0.97% and the “Degree of conversion of carbamazepine” value ([1]; 5 mg/ml Methocel K4M, time 3 days) was 8.8%. The “Degree of conversion of carbamazepine” value ([1]; 5 mg/ml Methocel K4M, time 4 days) was 21.5%, the “Degree of conversion of carbamazepine” value ([1]; 5 mg/ml Methocel K4M, time 7 days) was 100% and the “Degree of conversion of carbamazepine” value ([1]; Methocel K4M 0 mg/ml, 24 hours, 1% SDS, 37° C.) was 100%. The “Degree of conversion of carbamazepine” value ([1]; Methocel K4M 0.5 mg/ml, 24 hours, 1% SDS, 37° C.) was 77.0%, the “Degree of conversion of carbamazepine” value ([1]; Methocel K4M 1 mg/ml, 24 hours, 1% SDS, 37° C.) was 23.1% and the “Degree of conversion of carbamazepine” value ([1]; Methocel K4M 2 mg/ml, 24 hours, 1% SDS, 37° C.) was 0%. For the same molecule, the “Degree of conversion of carbamazepine” value ([1]; Methocel K4M 5 mg/ml, 24 hours, 1% SDS, 37° C.) was 0%, the “Degree of conversion of carbamazepine” value ([1]; Methocel K4M 10 mg/ml, 24 hours, 1% SDS, 37° C.) was 0% and the “Transformation of carbamazepine to dihydrate” value ([1]; after 7 days, all examined Methocel K4M concentrations) was “transformed completely to dihydrate”. For the same molecule, the “Conversion of anhydrous carbamazepine to dihydrate (DSC thermograms)” value ([1]; suspended in water, without HPMC) was “completely converted to dihydrate”, the “SEM: form of carbamazepine in the gel layer” value ([2]; 6 hours of hydration) was “transformed to an amorphous form” and the “SEM: form of carbamazepine in the gel layer” value ([2]; 20 hours hydration) was “showed the same behavior”. The “Transformation of carbamazepine to the dihydrate form in the gel layer” value ([2]; hydrated tablets containing 50% polymer, 6 and 20 hours) was “inhibited”, the Solubility in water [3] was “practically insoluble in water” and the solubility ([4]; 0.5% sds in water) was 1470 µg/mL (≈ 6.21 mM). For the same molecule, the solubility ([4]; 1% sds in water) was 3300 µg/mL (≈ 14 mM), the “Conversion to carbamazepine dihydrate complete” value [5] was 95% and the “X-ray diffraction: crystal form of carbamazepine” value ([6]; 1 mg/ml Methocel K4M solution) was “mixture of carbamazepine and carbamazepine dihydrate crystals”. For the same molecule, the “X-ray diffraction: crystal form of carbamazepine” value ([6]; 10 mg/ml Methocel K4M solution) was “solely the anhydrous form” and the “SEM: appearance of carbamazepine crystals from HPMC solutions” value ([6]; 1, 5 or 10 mg/ml HPMC, 1 and 7 days) was “appear to be amorphous”.
